Results: ChEMBL document CHEMBL1671847, “Hybrid dual aromatase-steroid sulfatase inhibitors with exquisite picomolar inhibitory activity” (ACS Med Chem Lett, 2011)

Target: T1, Aromatase (Homo sapiens, UniProt P11511)
T1 sequence (P11511 whole entry): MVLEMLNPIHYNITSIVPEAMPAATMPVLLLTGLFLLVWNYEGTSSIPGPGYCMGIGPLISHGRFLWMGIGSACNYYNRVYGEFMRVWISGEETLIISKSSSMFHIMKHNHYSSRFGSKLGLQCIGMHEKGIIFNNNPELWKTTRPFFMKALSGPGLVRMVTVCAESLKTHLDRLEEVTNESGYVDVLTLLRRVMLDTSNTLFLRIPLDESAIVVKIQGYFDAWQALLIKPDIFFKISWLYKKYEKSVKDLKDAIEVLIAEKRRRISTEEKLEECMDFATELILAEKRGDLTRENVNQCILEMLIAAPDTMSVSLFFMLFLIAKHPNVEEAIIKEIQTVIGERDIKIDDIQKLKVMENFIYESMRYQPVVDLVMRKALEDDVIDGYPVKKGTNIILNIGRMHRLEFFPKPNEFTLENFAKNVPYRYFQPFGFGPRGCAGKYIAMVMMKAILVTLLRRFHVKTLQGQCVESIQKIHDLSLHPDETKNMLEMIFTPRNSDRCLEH
Assay: Inhibition of aromatase in human JEG-3 cells using [1beta-3H]androstenedione after 1 hr by scintillation spectrometry
Format: cell-based

IC50: 0.21 nM
Structure (SMILES): N#Cc1ccc(N(Cc2ccc(OS(N)(=O)=O)cc2)n2cnnc2)cc1-c1ccccc1
